The numbers were not newly measured in patent publication US7759468B1, “Bioactive peptide-based probes” (priority 2003, dated 2010), which cites them from elsewhere.

The data set has as its system L. lactis ssp. lactis C2. The settings on record: known / from the literature; cited from earlier work.

With Glu-Glu [Glu-Glu peptide], the Inhibition of growth result is on record as “potent inhibitor of growth”.
